Results on 38 compounds are retold here after PubChem BioAssay (NCI).

Among the test systems are MDA-N; DLD-1 colon; KM20L2 colon; RXF-631 renal; SNB-78 CNS; HOP-18 NSCLC; P388 leukemia; P388/ADR leukemia; SN12K1 renal; XF 498 CNS; LXFL 529 NSCLC.
Common to all, as to test: NCI tumour cell line growth inhibition, 48 h

Molecules are shown by their SMILES. “And” between values parts separate entries of the source, which are not always exact repeats. Equal values may be shown once.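 Step 1: Grow cells in 96-well plates. Step 2: Expose to compound for 48 hours at 5 concentrations. Step 3: Interpolate endpoints linearly; if unreached, use highest concentration. GI50 = concentration required for 50% inhibition of growth. TGI denotes the concentration required for complete inhibition of growth.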

Consider `CSC1(SC2=NCCN2)SC2(NCCN2)S1`, for which, in the assay on MDA-N, the TGI stood at 49.1 µM.

On to `CCCC(Sc1ccccc1)P(=O)(c1ccccc1)c1ccccc1` (stereo not drawn), for which the TGI in the assay on DLD-1 colon is above 100 µM; in the assay on KM20L2 colon, above 100 µM; in the assay on RXF-631 renal it was 94.7 µM; with SNB-78 CNS it was above 100 µM.

Consider `OCC1OC(n2cnc3c(=S)nc[nH]c32)C(O)C1O` (stereo not drawn), for which the TGI in the assay with HOP-18 NSCLC, in the assay with KM20L2 colon, in the assay with MDA-N, in the assay on P388 leukemia, with P388/ADR leukemia and with SN12K1 renal was above 2500 µM each time. In addition, the values for the TGI with SNB-78 CNS and with XF 498 CNS were above 2500 µM and above 1400 µM, respectively.

Turning to `C1CCOC2(CCC3(CC2)OCCCCO3)OC1`, the TGI in the assay on DLD-1 colon, in the assay with HOP-18 NSCLC, in the assay with KM20L2 colon, with LXFL 529 NSCLC and in the assay on SNB-78 CNS was above 100 µM in each case.

Turning to `CC(=O)NC1CC2Oc3ccc(C)cc3C(C)(O2)C1O` (stereo not drawn), the TGI with DLD-1 colon, in the assay with HOP-18 NSCLC and with XF 498 CNS was above 100 µM throughout.

In the assay on MDA-N, `c1ccc(CSc2nnc3c4ccccc4c4ccccc4c3n2)cc1` displayed a TGI above 100 µM.

In the case of `Clc1nc(Cl)c(-c2ccccc2)c(Cl)n1`, the TGI in the assay with MDA-N is 6.67 µM.

For the compound `C=C1CCC2[C@@H](CCC3[C@]2(C)CCC[C@]3(C)C(=O)OC)C1CCO` (stereo partly drawn), the TGI worked out at 46.8 µM in the assay on DLD-1 colon; 29.9 µM in the assay with HOP-18 NSCLC; 22.8 µM in the assay with KM20L2 colon; 21 µM with LXFL 529 NSCLC; 36.3 µM in the assay on SNB-78 CNS; 22.6 µM in the assay on XF 498 CNS.

Turning to `O=c1[nH]c(-c2ccc(-c3nc4cc([N+](=O)[O-])ccc4c(=O)[nH]3)cc2)nc2cc([N+](=O)[O-])ccc12`, the TGI in the assay with DLD-1 colon, with KM20L2 colon, in the assay with LXFL 529 NSCLC, with RXF-631 renal and in the assay on SNB-78 CNS was above 100 µM in each case.

On to `C/C=C/C=C/CCCCCCCCCCCCCC1(OC)C=CC(CC(=O)OC)OO1` (stereo not drawn), for which the GI50 in the assay on DLD-1 colon is 5.79 µM; in the assay on KM20L2 colon, 1.89 µM; in the assay with LXFL 529 NSCLC, 4.7 µM; in the assay on RXF-631 renal it was 10.8 µM; with XF 498 CNS, 6.59 µM. The TGI in the assay with DLD-1 colon came to 23.8 µM; in the assay on KM20L2 colon it was 3.51 µM; with LXFL 529 NSCLC, 16.7 µM; in the assay on RXF-631 renal it was 29.1 µM; with XF 498 CNS, 15.8 µM.

As to `C=CCC(OCCOCC)c1cc(OCCOCC)ccc1OC` (stereo not drawn), the TGI in the assay on LXFL 529 NSCLC, in the assay with SNB-78 CNS and with XF 498 CNS was above 100 µM each time.

In the case of `Cc1ccc(Sc2ccc(C)cc2[N+](=O)[O-])c([N+](=O)[O-])c1`, the TGI in the assay on HOP-18 NSCLC, in the assay with KM20L2 colon, in the assay on LXFL 529 NSCLC, with SNB-78 CNS and in the assay on XF 498 CNS was above 100 µM throughout.

On to `CN(C)c1ccc(C(=C2C=CC(=[N+](C)C)C=C2)c2ccc(N(C)C)cc2)cc1`, for which the TGI stood at 1.74 µM in the assay with DLD-1 colon; 0.938 µM in the assay with KM20L2 colon; 1.03 µM in the assay on LXFL 529 NSCLC; 5.67 µM in the assay on SNB-78 CNS; 0.193 µM in the assay on XF 498 CNS.

Turning to `COC(=O)C(F)C(Br)C(=O)OC` (stereo not drawn), the TGI in the assay with MDA-N turned out to be 22.7 µM.

As to `c1ccc(P(CCP(CCP(c2ccccc2)c2ccccc2)c2ccccc2)CCP(c2ccccc2)c2ccccc2)cc1` (stereo not drawn), in the assay on MDA-N, the GI50 is > 10 µM and 3.35 µM; the TGI is above 10 µM.

With `O=C(Nc1nc(=S)c2c(ncn2CCO)[nH]1)c1ccccc1`, the TGI with DLD-1 colon, in the assay on HOP-18 NSCLC, with KM20L2 colon, with LXFL 529 NSCLC, in the assay with SNB-78 CNS and in the assay with XF 498 CNS was above 100 µM each time.

On to `COc1cc(C)c(O)c(C(=O)O)c1`, for which the TGI in the assay with DLD-1 colon, in the assay with HOP-18 NSCLC, in the assay with KM20L2 colon, with LXFL 529 NSCLC, in the assay on SNB-78 CNS and with XF 498 CNS was above 100 µM each time.

For `CCOC(=O)C1=C(Nc2cccc3ccccc23)OC/C1=N\NC(=O)c1ccccc1O`, the TGI was 81.5 µM with DLD-1 colon; 83.7 µM with HOP-18 NSCLC; 90.8 µM with KM20L2 colon; above 100 µM in the assay on LXFL 529 NSCLC; above 100 µM in the assay on RXF-631 renal; 30.7 µM with XF 498 CNS.

In the case of `COC(=O)C1=C(C(=O)OC)SC(=C(N=Nc2ccccc2)c2ccccc2)S1`, the TGI in the assay on DLD-1 colon, with HOP-18 NSCLC, in the assay on KM20L2 colon, in the assay on LXFL 529 NSCLC, in the assay on RXF-631 renal and in the assay on SNB-78 CNS was above 100 µM each time.

As to `C=C1CCc2occ(C)c2C2C1C1=C(CC(C)C1=O)C1OC12C` (stereo not drawn), the TGI with DLD-1 colon is above 100 µM; in the assay on HOP-18 NSCLC it was 6.77 µM; in the assay with KM20L2 colon, above 100 µM; in the assay with LXFL 529 NSCLC, above 100 µM; with SNB-78 CNS, above 100 µM; in the assay with XF 498 CNS, above 100 µM.

In the case of `CCC(/C=C/c1ccccc1)=N\Nc1ccc(Cl)c(Cl)c1`, the TGI in the assay with MDA-N is above 100 µM.

As to `CC1CCC(C(C)C)C(O[C@@H]2OC(=O)C[C@@H]2Sc2ccccc2)C1` (stereo partly drawn), the TGI in the assay with DLD-1 colon was above 100 µM; with LXFL 529 NSCLC, 46.1 µM; in the assay on RXF-631 renal it was 69.8 µM; in the assay on SNB-78 CNS, 73.1 µM.

Turning to `O=C1c2ccccc2CC1C1(O)C(=O)Nc2ccccc21` (stereo not drawn), the TGI in the assay on DLD-1 colon, with KM20L2 colon, with LXFL 529 NSCLC, in the assay on RXF-631 renal, in the assay with SNB-78 CNS and in the assay on XF 498 CNS was above 100 µM throughout.

Turning to `CCOC(=O)c1nc(-c2ccccc2)oc1OCC`, the TGI in the assay on DLD-1 colon, in the assay with HOP-18 NSCLC, in the assay on KM20L2 colon, in the assay with LXFL 529 NSCLC, with SNB-78 CNS and in the assay on XF 498 CNS was above 100 µM throughout.

As to `N.N.NCCCCCCN.O=C([O-])CC(=O)[O-].O=C([O-])CC(=O)[O-].[Pt+4].[Pt+4]`, the GI50 with DLD-1 colon, in the assay with HOP-18 NSCLC, in the assay on KM20L2 colon, with LXFL 529 NSCLC and in the assay with SNB-78 CNS was above 100 µM throughout. The TGI with DLD-1 colon, with HOP-18 NSCLC, in the assay on KM20L2 colon, in the assay with LXFL 529 NSCLC and in the assay with SNB-78 CNS was above 100 µM throughout.

On to `CC12CC(OC(=O)[C@]1(C)O)[C@@H]([C@]1(O)CC[C@H]3[C@@H]4C[C@H]5O[C@]56[C@@H](O)C=CC(=O)[C@]6(C)[C@H]4CC[C@@]31C)C2` (stereo partly drawn), for which the TGI in the assay with MDA-N was determined as 26.9 µM.

`COc1cc(/C=C/C(=O)c2sc(NNC(C)=O)nc2C)ccc1O`: the TGI in the assay with DLD-1 colon, with HOP-18 NSCLC, with KM20L2 colon, with RXF-631 renal and with SNB-78 CNS was above 100 µM in each case.

`C[C@@H](NC1CCC[C@H]1O)c1ccccc1` (stereo partly drawn): the TGI in the assay on DLD-1 colon, in the assay on HOP-18 NSCLC, with KM20L2 colon, in the assay on LXFL 529 NSCLC, in the assay on SNB-78 CNS and with XF 498 CNS was above 100 µM each time.

For `CS/C(=N\c1nccs1)NC(=O)c1cccc(Cl)c1`, the TGI with DLD-1 colon, in the assay with HOP-18 NSCLC, with KM20L2 colon, with LXFL 529 NSCLC, in the assay with RXF-631 renal and in the assay with SNB-78 CNS was above 100 µM in each case.

As for `COC(=O)C1=C(O)c2cc3c(cc2[C@H](c2cc(OC)c(OC)c(OC)c2)C1C(=O)OC)OCO3` (stereo partly drawn), the TGI is above 100 µM in the assay with DLD-1 colon; 89.4 µM in the assay on HOP-18 NSCLC; above 100 µM with KM20L2 colon; above 100 µM with LXFL 529 NSCLC; above 100 µM in the assay with RXF-631 renal; above 100 µM with SNB-78 CNS. Besides, the TGI in the assay on XF 498 CNS came out at 70 µM.

In the assay on MDA-N, `Nc1nc(N)c(N=O)c(OCC2CCCCC2)n1` came in with a TGI of 67.4 µM.

Regarding `O=C1CCC2(c3ccccc3)Nc3ncccc3N12` (stereo not drawn), the TGI in the assay with DLD-1 colon, with KM20L2 colon, in the assay with LXFL 529 NSCLC, in the assay with SNB-78 CNS and in the assay with XF 498 CNS was above 100 µM throughout.

`COC(=O)c1cc(-c2cccn2C)c2c(c1C(=O)OC)c1ccccc1n2C`: the TGI in the assay on DLD-1 colon, with HOP-18 NSCLC, in the assay with LXFL 529 NSCLC, in the assay with RXF-631 renal, with SNB-78 CNS and in the assay on XF 498 CNS was above 100 µM in each case.

Regarding `O=c1cc(N=Nc2ccc(O)cc2)[nH]c(=O)[nH]1`, the TGI with MDA-N was above 100 µM.

For `CC#CC1C(OC(=O)c2ccccc2)CCCC1(CI)N=[N+]=[N-]` (stereo not drawn), the TGI was above 100 µM in the assay with DLD-1 colon; above 100 µM in the assay on HOP-18 NSCLC; above 100 µM in the assay on KM20L2 colon; above 100 µM in the assay with LXFL 529 NSCLC; above 100 µM in the assay with SNB-78 CNS; 78.7 µM with XF 498 CNS.

As for `COc1ccc(/C=C2\CCC(CN(C)C)C2=O)cc1OC` (stereo not drawn), the TGI in the assay on DLD-1 colon was found to be 8.83 µM; with HOP-18 NSCLC, 35.1 µM; in the assay with KM20L2 colon, 32.3 µM; in the assay with LXFL 529 NSCLC it was 6.7 µM; in the assay on RXF-631 renal it was 16.3 µM; in the assay on SNB-78 CNS, 66.4 µM. Moreover, in the assay on XF 498 CNS, the TGI was 26.3 µM.

Turning to `O=C1NC2C=CN(Cc3ccccc3)C=C2C(=O)N2CCCC12` (stereo not drawn), the TGI in the assay on DLD-1 colon, in the assay on HOP-18 NSCLC, with KM20L2 colon, with LXFL 529 NSCLC, with RXF-631 renal and in the assay with SNB-78 CNS was above 100 µM each time. For the same compound, in the assay with XF 498 CNS, the TGI was above 100 µM.

For the compound `N#Cc1cc([N+](=O)[O-])ccc1NC(=O)/C(=N/N)C(C(=O)c1ccc(Cl)c(Cl)c1)C1OC(=O)c2ccccc21` (stereo not drawn), the TGI in the assay with DLD-1 colon, in the assay with LXFL 529 NSCLC and in the assay on SNB-78 CNS was above 100 µM in each case.
